The values that follow come from patent publication US12139520B2 (priority 2020, dated 2024).

Numbered stars: 1 amine (or outer) side, 2 acyl side, 3 side chain; on linkers, the order of the positions; unused ones are H or OH. Bridge positions count the residues as written; N and C are the ends. Square brackets hold non-standard residues; d marks the D form. Peptide text beside a SMILES is read from it. * marks the point of attachment. C20 diacid = O=C(O)CCCCCCCCCCCCCCCCCCC(=O)*; γGlu = O=C(O)[C@H](CCC(=O)[*:2])N[*:1]; Hyp = O=C(O)[C@@H]1C[C@@H](O)CN1

The target in the experiment is T1, hAMY3 receptor (Homo sapiens, UniProt O60896+P30988).
T1 sequence (P30988 25-474): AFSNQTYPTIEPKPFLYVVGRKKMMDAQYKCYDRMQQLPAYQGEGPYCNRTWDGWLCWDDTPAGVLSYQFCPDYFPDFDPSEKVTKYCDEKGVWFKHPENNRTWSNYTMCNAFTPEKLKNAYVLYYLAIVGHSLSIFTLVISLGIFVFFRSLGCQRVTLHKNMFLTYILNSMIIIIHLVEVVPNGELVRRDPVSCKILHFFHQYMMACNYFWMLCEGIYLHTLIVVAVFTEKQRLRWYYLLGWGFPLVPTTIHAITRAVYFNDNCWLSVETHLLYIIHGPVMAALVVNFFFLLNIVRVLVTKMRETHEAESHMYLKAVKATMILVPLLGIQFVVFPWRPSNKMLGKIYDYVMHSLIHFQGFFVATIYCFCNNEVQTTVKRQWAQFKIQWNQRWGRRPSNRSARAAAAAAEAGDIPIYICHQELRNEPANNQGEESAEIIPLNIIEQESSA
T1 sequence (O60896 24-148 partner): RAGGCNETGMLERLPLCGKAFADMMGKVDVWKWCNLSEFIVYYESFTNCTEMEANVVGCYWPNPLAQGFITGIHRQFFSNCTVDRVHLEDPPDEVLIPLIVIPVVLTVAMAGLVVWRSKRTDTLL
Briefly: cAMP assay for in vitro receptor activation, hAMY3-R. It is filed as cell-based. The settings on record: cAMP assay, hAMY3 receptor; read-out: hAMY3R EC50. In a few lines:
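Receptor activation was measured as cAMP accumulation in a monoclonal cell line stably overexpressing hAMY3. Stimulation with graded doses lasted 30 min at room temperature in the presence of 0.5 mM IBMX, with human amylin as positive control.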
(Changes in cAMP serve as a functional read-out for many G protein-coupled receptors.)
A word on the EC50: it is the concentration that produces a half-maximal response. For the molecule `CC[C@H](C)[C@H](NC(=O)[C@H](CCC(N)=O)NC(=O)[C@H](Cc1c[nH]cn1)NC(=O)[C@H](C)NC(=O)[C@H](CC(C)C)NC(=O)[C@H](CCCNC(=N)N)NC(=O)[C@H](CCC(N)=O)NC(=O)[C@@H](NC(=O)[C@@H](NC(=O)[C@@H]1CSSC[C@H](NC(=O)[C@H](CCCCN)NC(=O)CC[C@H](NC(=O)CCCCCCCCCCCCCCCCCCC(=O)O)C(=O)O)C(=O)N[C@@H](CC(N)=O)C(=O)N[C@@H]([C@@H](C)O)C(=O)N[C@@H](C)C(=O)N[C@@H]([C@@H](C)O)C(=O)N1)[C@@H](C)O)C(C)C)C(=O)N[C@@H](Cc1ccc(O)cc1)C(=O)N[C@@H](CCC(N)=O)C(=O)N[C@@H](Cc1ccccc1)C(=O)N[C@H](C(=O)N[C@@H](CC(=O)O)C(=O)N[C@@H](CCCCN)C(=O)N[C@@H](CC(N)=O)C(=O)N[C@@H](CCCCN)C(=O)N[C@@H](CC(=O)O)C(=O)N[C@@H](CC(N)=O)C(=O)N[C@H](C(=O)N[C@@H](C)C(=O)N1CCC[C@H]1C(=O)N1CCC[C@H]1C(=O)N[C@H](C(=O)N[C@@H](CC(N)=O)C(=O)N[C@H](C(=O)NCC(=O)N[C@@H](CO)C(=O)N[C@@H](CC(N)=O)C(=O)NCC(=O)N1C[C@H](O)C[C@H]1C(N)=O)C(C)C)[C@@H](C)O)C(C)C)[C@@H](C)O` [compound 91] ({C20 diacid-γGlu}-KCNTATCTVQRLAHQIYQFTDKNKDNVAPPTNVGSNG[Hyp]-NH2; disulfide 2-7), the concentration giving a half-maximal response (EC50) stood at 16 pM. For `CC[C@H](C)[C@H](NC(=O)[C@H](CCC(N)=O)NC(=O)[C@H](Cc1c[nH]cn1)NC(=O)[C@H](C)NC(=O)[C@H](CC(C)C)NC(=O)[C@H](CCCNC(=N)N)NC(=O)[C@H](CCC(N)=O)NC(=O)[C@@H](NC(=O)[C@@H](NC(=O)[C@@H]1CSSC[C@H](NC(=O)[C@H](CCCCN)NC(=O)CC[C@H](NC(=O)CCCCCCCCCCCCCCCCCCC(=O)O)C(=O)O)C(=O)N[C@@H](CC(N)=O)C(=O)N[C@@H]([C@@H](C)O)C(=O)N[C@@H](C)C(=O)N[C@@H]([C@@H](C)O)C(=O)N1)[C@@H](C)O)C(C)C)C(=O)N[C@@H](C)C(=O)N[C@@H](CCC(N)=O)C(=O)N[C@@H](Cc1ccccc1)C(=O)N[C@H](C(=O)N[C@@H](CC(=O)O)C(=O)N[C@@H](CCCCN)C(=O)N[C@@H](CC(=O)O)C(=O)N[C@@H](CCCCN)C(=O)N[C@@H](CC(=O)O)C(=O)N1CCC[C@H]1C(=O)N[C@H](C(=O)N[C@@H](C)C(=O)N1CCC[C@H]1C(=O)N1CCC[C@H]1C(=O)N[C@H](C(=O)N[C@@H](CC(N)=O)C(=O)N[C@H](C(=O)NCC(=O)N[C@@H](CO)C(=O)N[C@@H](CC(N)=O)C(=O)NCC(=O)N1C[C@H](O)C[C@H]1C(N)=O)C(C)C)[C@@H](C)O)C(C)C)[C@@H](C)O` [compound 92] ({C20 diacid-γGlu}-KCNTATCTVQRLAHQIAQFTDKDKDPVAPPTNVGSNG[Hyp]-NH2; disulfide 2-7) the value was 16 pM. For `CC[C@H](C)[C@H](NC(=O)[C@H](CCC(N)=O)NC(=O)[C@H](Cc1c[nH]cn1)NC(=O)[C@H](C)NC(=O)[C@H](CC(C)C)NC(=O)[C@H](CCCNC(=N)N)NC(=O)[C@H](CCC(N)=O)NC(=O)[C@@H](NC(=O)[C@@H](NC(=O)[C@@H]1CSSC[C@H](NC(=O)[C@H](CCCCN)NC(=O)CC[C@H](NC(=O)CCCCCCCCCCCCCCCCCCC(=O)O)C(=O)O)C(=O)N[C@@H](CC(N)=O)C(=O)N[C@@H]([C@@H](C)O)C(=O)N[C@@H](C)C(=O)N[C@@H]([C@@H](C)O)C(=O)N1)[C@@H](C)O)C(C)C)C(=O)N[C@@H](Cc1ccc(O)cc1)C(=O)N[C@@H](CCC(N)=O)C(=O)N[C@@H](Cc1ccccc1)C(=O)N[C@H](C(=O)N[C@@H](CC(=O)O)C(=O)N[C@@H](CCCCN)C(=O)N[C@@H](CC(=O)O)C(=O)N[C@@H](CCCCN)C(=O)N[C@@H](CC(=O)O)C(=O)N[C@@H](CC(N)=O)C(=O)N[C@H](C(=O)N[C@@H](C)C(=O)N1CCC[C@H]1C(=O)N[C@@H](CCCNC(=N)N)C(=O)N[C@H](C(=O)N[C@@H](CCCCN)C(=O)N[C@H](C(=O)NCC(=O)N[C@@H](CO)C(=O)N[C@@H](CC(N)=O)C(=O)NCC(=O)N1C[C@H](O)C[C@H]1C(N)=O)C(C)C)[C@@H](C)O)C(C)C)[C@@H](C)O` [compound 99] ({C20 diacid-γGlu}-KCNTATCTVQRLAHQIYQFTDKDKDNVAPRTKVGSNG[Hyp]-NH2; disulfide 2-7) the value was 17 pM; for `CC[C@H](C)[C@H](NC(=O)[C@H](CCC(N)=O)NC(=O)[C@H](Cc1c[nH]cn1)NC(=O)[C@H](C)NC(=O)[C@H](CC(C)C)NC(=O)[C@H](CCCNC(=N)N)NC(=O)[C@H](C)NC(=O)[C@@H](NC(=O)[C@@H](NC(=O)[C@@H]1CSSC[C@H](NC(=O)[C@H](CCCCN)NC(=O)CC[C@H](NC(=O)CCCCCCCCCCCCCCCCCCC(=O)O)C(=O)O)C(=O)N[C@@H](CC(N)=O)C(=O)N[C@@H]([C@@H](C)O)C(=O)N[C@@H](C)C(=O)N[C@@H]([C@@H](C)O)C(=O)N1)[C@@H](C)O)C(C)C)C(=O)N[C@@H](C)C(=O)N[C@@H](CCC(N)=O)C(=O)N[C@@H](Cc1ccccc1)C(=O)N[C@H](C(=O)N[C@@H](CC(=O)O)C(=O)N[C@@H](CCCCN)C(=O)N[C@@H](CC(=O)O)C(=O)N[C@@H](CCCCN)C(=O)N[C@@H](CC(=O)O)C(=O)N[C@@H](CC(N)=O)C(=O)N[C@H](C(=O)N[C@@H](C)C(=O)N1CCC[C@H]1C(=O)N1CCC[C@H]1C(=O)N[C@H](C(=O)N[C@@H](CC(N)=O)C(=O)N[C@H](C(=O)NCC(=O)N[C@@H](CO)C(=O)N[C@@H](CC(N)=O)C(=O)NCC(=O)N1C[C@H](O)C[C@H]1C(N)=O)C(C)C)[C@@H](C)O)C(C)C)[C@@H](C)O` [compound 107] ({C20 diacid-γGlu}-KCNTATCTVARLAHQIAQFTDKDKDNVAPPTNVGSNG[Hyp]-NH2; disulfide 2-7), 19 pM. Turning to `CC[C@H](C)[C@H](NC(=O)[C@H](CCCCN)NC(=O)[C@@H](NC(=O)[C@H](CCCNC(=N)N)NC(=O)[C@@H]1CCCN1C(=O)[C@H](C)NC(=O)[C@@H](NC(=O)[C@H](CC(N)=O)NC(=O)[C@H](CC(=O)O)NC(=O)[C@H](CCCCN)NC(=O)[C@H](CC(=O)O)NC(=O)[C@H](CCCCN)NC(=O)[C@H](CC(=O)O)NC(=O)[C@@H](NC(=O)[C@H](Cc1ccccc1)NC(=O)[C@H](CCC(N)=O)NC(=O)[C@H](Cc1ccc(O)cc1)NC(=O)[C@@H](NC(=O)[C@H](CCC(N)=O)NC(=O)[C@H](Cc1c[nH]cn1)NC(=O)[C@H](C)NC(=O)[C@H](CC(C)C)NC(=O)[C@H](CCCNC(=N)N)NC(=O)[C@H](CCC(N)=O)NC(=O)[C@@H](NC(=O)[C@@H](NC(=O)[C@@H]1CSSC[C@H](NC(=O)CN)C(=O)N[C@@H](CCCNC(=N)N)C(=O)N[C@@H](Cc2ccccc2)C(=O)NCC(=O)N[C@@H]([C@@H](C)O)C(=O)N1)[C@@H](C)O)C(C)C)[C@@H](C)CC)[C@@H](C)O)C(C)C)[C@@H](C)O)C(=O)NCC(=O)N1CCC[C@H]1C(=O)N[C@@H](CCC(N)=O)C(=O)NCC(=O)N1C[C@H](O)C[C@H]1C(N)=O` [compound 111] (H-GCRFGTCTVQRLAHQIYQFTDKDKDNVAPRTKIGPQG[Hyp]-NH2; disulfide 2-7; N-terminus assumed), the concentration for a half-maximal effect (EC50) is 21 pM. As for `CC(C)C[C@H](NC(=O)[C@H](CCCNC(=N)N)NC(=O)[C@H](CCC(N)=O)NC(=O)[C@@H](NC(=O)[C@@H](NC(=O)[C@@H]1CSSC[C@H](NC(=O)CN)C(=O)N[C@@H](CCCNC(=N)N)C(=O)N[C@@H](Cc2ccccc2)C(=O)NCC(=O)N[C@@H]([C@@H](C)O)C(=O)N1)[C@@H](C)O)C(C)C)C(=O)N[C@@H](C)C(=O)N[C@@H](Cc1c[nH]cn1)C(=O)N[C@@H](Cc1ccccc1)C(=O)N[C@@H](CC(C)C)C(=O)N[C@@H](Cc1ccc(O)cc1)C(=O)N[C@@H](CCC(N)=O)C(=O)N[C@@H](Cc1ccccc1)C(=O)N[C@H](C(=O)N[C@@H](CC(=O)O)C(=O)N[C@@H](CCCCN)C(=O)N[C@@H](CC(=O)O)C(=O)N[C@@H](CCCCN)C(=O)N[C@@H](CC(=O)O)C(=O)N[C@@H](CC(N)=O)C(=O)N[C@H](C(=O)N[C@@H](C)C(=O)N1CCC[C@H]1C(=O)N[C@@H](CCCNC(=N)N)C(=O)N[C@H](C(=O)N[C@@H](CCCCN)C(=O)N[C@H](C(=O)NCC(=O)N[C@@H](CO)C(=O)N[C@@H](CC(N)=O)C(=O)NCC(=O)N[C@@H](Cc1ccc(O)cc1)C(N)=O)C(C)C)[C@@H](C)O)C(C)C)[C@@H](C)O` [compound 117] (H-GCRFGTCTVQRLAHFLYQFTDKDKDNVAPRTKVGSNGY-NH2; disulfide 2-7; N-terminus assumed), the EC50 was determined as 24 pM.
